Measurements from paper PMC4394992 (Journal of controlled release : official journal of the …, 2015).

Experiments:
[1] = test system: 4T1 murine breast cancer cells; assay: Cell proliferation MTS assay; format: cell-based; conditions: Mus musculus, 96 h
[2] = test system: Miapaca-2 cells; assay: Cell clonogenic assay, drug alone; format: cell-based, human; conditions: Miapaca-2, 3 µM
[3] = test system: 4T1 cells; assay: Cell clonogenic assay, drug alone; format: cell-based, murine; conditions: 4T1, 3 µM

Structure (SMILES): CC1=C2C[C@H]3[C@@H](CC=C4C[C@@H](O)CC[C@@]43C)[C@@H]2CC[C@]12O[C@@H]1C[C@H](C)CN[C@H]1[C@H]2C [free CPA, cyclopamine]
- IC50 [1]: 11.3 ± 1.2 µM
- Reduction of colony numbers [2]: 17.7% ± 4.3
- Reduction of colony numbers [3]: 6.7% ± 6.1
